Assay results reported in PubChem BioAssay (NCI).
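Each compound was tested at five concentrations against cells in 96-well plates for 48 hours. TGI marks complete inhibition of growth.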

Experiments:
Test in all cases: DTP human tumour cell line panel, 48 h
IGROV1 ovarian = tested on: IGROV1 ovarian
MCF7 breast = tested on: MCF7 breast
MDA-N = tested on: MDA-N
NCI-H226 lung = tested on: NCI-H226 lung
RPMI-8226 leukemia = tested on: RPMI-8226 leukemia
SN12C renal = tested on: SN12C renal
TK-10 renal = tested on: TK-10 renal
U251 CNS = tested on: U251 CNS
UO-31 renal = tested on: UO-31 renal
HL-60(TB) leukemia = tested on: HL-60(TB) leukemia

Structure (SMILES) | TGI (IGROV1 ovarian) [µM] | TGI (MCF7 breast) [µM] | TGI (MDA-N) [µM] | TGI (NCI-H226 lung) [µM] | TGI (RPMI-8226 leukemia) [µM] | TGI (SN12C renal) [µM] | TGI (TK-10 renal) [µM] | TGI (U251 CNS) [µM] | TGI (UO-31 renal) [µM] | TGI (HL-60(TB) leukemia) [µM]
COC(=O)C(/C(=N/NC(N)=O)C(=O)Nc1ccc(C)cc1)c1nc2ccc([N+](=O)[O-])cc2[nH]c1=O (stereo unspecified) | > 100 | > 100 | > 100 | > 100 | > 100 | > 100 | > 100 | > 100 | – | –
CCOC(=O)C1Cc2[nH]c3ccccc3c2C(C)C1C (stereo unspecified) | 33.9 | – | – | 25.3 | – | 32.8 | 76 | 35.1 | 35.8 | –
COc1ccc(C2Oc3c(cc(O)c(OC)c3C)[C@@H]2C)cc1OC (stereo partly specified) | > 100 | – | – | > 100 | > 100 | – | > 100 | > 100 | > 100 | > 100
Nc1cc(CO)cc(Nc2nc3ccc(Cl)cc3c3[nH]c4ccccc4c23)c1 | 8.93 | 3.92 | 21.1 | – | 9.78 | 12.9 | 21.3 | 23.9 | 11.6 | 52.7
Cn1cc2ccccc2c1-c1nc(N)nc(F)n1 | > 100 | – | – | > 100 | > 100 | > 100 | > 100 | > 100 | > 100 | > 100
Oc1ccc(/C=C/c2cc(O)cc(O)c2)cc1 | – | > 100 | > 100 | > 100 | > 100 | > 100 | > 100 | > 100 | > 100 | > 100
CC[C@]1(Cc2ccc(OC)c(OC)c2)CN(S(=O)(=O)c2ccc(C)cc2)C[C@@H]1OC(C)=O | > 100 | > 100 | > 100 | > 100 | > 100 | – | > 100 | > 100 | > 100 | > 100
OCC1CCCCCCCCCCC12SCCCS2 (stereo unspecified) | > 100 | > 100 | > 100 | > 100 | > 100 | – | > 100 | > 100 | > 100 | > 100
CC1=C2C(=O)NN=C2CCN1c1ccc(Br)cc1 | > 100 | > 100 | > 100 | > 100 | – | > 100 | > 100 | > 100 | > 100 | > 100
S=C(N/N=C\C=N/NC(=S)N1CCCCC1)N1CCCCC1 | > 52.7 | > 100 | > 100 | > 68.1 | > 100 | > 100 | > 100 | > 100 | > 63.1 | –
O=C(O)CSc1nnc(COc2ccc(Cl)cc2)n1-c1ccccc1 | > 100 | > 100 | > 100 | > 100 | – | > 100 | > 100 | > 100 | > 100 | > 100
CC(O[Si](c1ccccc1)(c1ccccc1)C(C)(C)C)[C@H](NC(=O)OC(C)(C)C)C(=O)O[Si](c1ccccc1)(c1ccccc1)C(C)(C)C (stereo partly specified) | 31.9 | 48.6 | 34.1 | – | 62.6 | – | 31.1 | 31.7 | 26.3 | 31
C/C(CCOC1CCCCO1)=C(\C)[Si](C)(C)C (stereo unspecified) | > 100 | – | – | – | > 100 | > 100 | > 100 | > 100 | > 100 | > 100
COc1cccc2c(N)c3cccc(C(=O)NCCN(C)C)c3nc12 | 1.65 | 1.57 | 0.982 | 0.386 | 3.87 | 0.488 | 6.14 | 1.57 | 3.04 | –
Cc1nc2c(sc(=S)n2-c2ccccc2)c2nc3ncccc3n12 | > 100 | > 100 | > 100 | – | > 100 | > 100 | > 100 | > 100 | > 100 | > 100
COc1ccc(-n2c(=O)c3[nH]cnc3n(-c3ccc(OC)cc3)c2=S)cc1 | > 100 | > 100 | – | > 100 | > 100 | > 100 | > 100 | > 100 | > 100 | > 100
C=C(C(=O)C(=O)Oc1ccc(Cl)cc1)C(=O)c1ccc(C)cc1 | > 100 | – | – | > 100 | > 100 | > 100 | > 100 | 46.2 | > 100 | > 100
CN(C)CCCOc1nc2c(c(=O)n(C)c(=O)n2C)n1C (tested in a mixture with another compound) | > 100 | > 100 | – | 47.7 | > 100 | 30.1 | 42.1 | > 100 | > 100 | –
COCCOCOc1ccc(OCc2ccccc2)cc1 | > 100 | > 51.4 | – | > 100 | > 100 | > 100 | – | > 100 | > 100 | > 100
O=c1[nH]n2c(=O)cc[nH]c2c1-c1nnns1 | > 100 | – | – | > 100 | > 100 | > 100 | > 100 | > 100 | > 100 | > 100
Cc1cc(N(CCC#N)CCC#N)ccc1/C=N/NC(=O)c1cc(Cl)ccc1O | > 100 | > 100 | > 100 | > 100 | – | > 100 | > 100 | > 100 | – | > 100
CC1(Cl)C(=O)NC(=O)N(C2CC(N=[N+]=[N-])C(CO)O2)C1N=[N+]=[N-] (stereo unspecified) | > 100 | – | – | – | > 100 | > 100 | > 100 | > 100 | > 100 | > 100
N=C1CSC2=NC3=C(CCC/C3=C\c3ccccc3)C(c3ccccc3)N12 (stereo unspecified) | 20.1 | – | – | 35.1 | 5.57 | 27.9 | 18.1 | 13.6 | 27.4 | 6.3
CC(CN1c2ccccc2Sc2ccccc21)N(C)C (stereo unspecified) | 34.7 | 42.8 | – | 34.5 | – | 29.1 | – | 27.7 | 32.8 | 39.9
